Source: ChEMBL document CHEMBL4387741, “Optimization of novel reversible Bruton's tyrosine kinase inhibitors identified using Tethering-fragment-based screens” (Bioorg Med Chem, 2019)

Tests used:
[1] = target: Cyclin-dependent kinase 14 (Homo sapiens) (UniProt O94921); assay: Inhibition of wild-type human full length PFTK1 (M1 to H451 residues) expressed in bacterial expression system at 1 uM by Kinomescan method relative to control
[2] = target: Platelet-derived growth factor receptor alpha (Homo sapiens) (UniProt P16234); assay: Inhibition of wild-type human partial length PDGFRA (V575 to D1002 residues) expressed in mammalian expression system at 1 uM by Kinomescan method relative to control
[3] = target: Ephrin type-A receptor 2 (Homo sapiens) (UniProt P29317); assay: Inhibition of wild-type human partial length EPHA2 (T593 to V891 residues) expressed in bacterial expression system at 1 uM by Kinomescan method relative to control
[4] = target: CDK4/Cyclin D3 (Homo sapiens) (UniProt P11802+P30281); assay: Inhibition of wild-type human full length CDK4/cyclinD3 (M1 to E303 residues) expressed in mammalian expression system at 1 uM by Kinomescan method relative to control
[5] = target: Calcium/calmodulin-dependent protein kinase kinase 2 (Homo sapiens) (UniProt Q96RR4); assay: Inhibition of wild-type human partial length CAMKK2 (D65 to V471 residues) expressed in bacterial expression system at 1 uM by Kinomescan method relative to control
[6] = target: High affinity nerve growth factor receptor (Homo sapiens) (UniProt P04629); assay: Inhibition of wild-type human partial length TRKA (G475 to G790 residues) expressed in mammalian expression system at 1 uM by Kinomescan method relative to control
[7] = target: Serine/threonine-protein kinase Sgk1 (Homo sapiens) (UniProt O00141); assay: Inhibition of wild-type human partial length SGK (I60 to L431 residues) expressed in mammalian expression system at 1 uM by Kinomescan method relative to control
[8] = Terminal half-life in Sprague-Dawley rat at 1 mg/kg, iv; assay type: ADME, organism-based; conditions: in vivo, read-out: beta t1/2 (converted)
[9] = target: TGF-beta receptor type-1 (Homo sapiens) (UniProt P36897); assay: Inhibition of wild-type human partial length TGFBR1 (D179 to M503 residues) expressed in bacterial expression system at 1 uM by Kinomescan method relative to control
[10] = target: Activin receptor type-1B (Homo sapiens) (UniProt P36896); assay: Inhibition of wild-type human ACVR1B (S187 to I505 residues) expressed in bacterial expression system at 1 uM by Kinomescan method relative to control
[11] = target: Serine/threonine-protein kinase PLK1 (Homo sapiens) (UniProt P53350); assay: Inhibition of wild-type human partial length PLK1 (A33 to F325 residues) expressed in mammalian expression system at 1 uM by Kinomescan method relative to control
[12] = target: Interleukin-1 receptor-associated kinase 4 (Homo sapiens) (UniProt Q9NWZ3); assay: Inhibition of wild-type human partial length IRAK4 (M1 to S460 residues) expressed in mammalian expression system at 1 uM by Kinomescan method relative to control
[13] = test system: Proto-oncogene tyrosine-protein kinase receptor Ret (Homo sapiens), P07949 [V804M]; assay: Inhibition of human partial length RET V804M mutant (E713 to D1014 residues) expressed in bacterial expression system at 1 uM by Kinomescan method relative to control
[14] = target: Tyrosine-protein kinase receptor UFO (Homo sapiens) (UniProt P30530); assay: Inhibition of wild-type human partial length AXL (R497 to Y821 residues) expressed in bacterial expression system at 10 uM by Kinomescan method relative to control
[15] = target: Tyrosine-protein kinase JAK1 (Homo sapiens) (UniProt P23458); assay: Inhibition of wild-type human partial length JAK1 JH1 catalytic domain (V856 to K1154 residues) expressed in bacterial expression system at 10 uM by Kinomescan method relative to control
[16] = target: MAP kinase-interacting serine/threonine-protein kinase 1 (Homo sapiens) (UniProt Q9BUB5); assay: Inhibition of wild-type human full length MKNK1 (M1 to L424 residues) expressed in mammalian expression system at 10 uM by Kinomescan method relative to control
[17] = target: Wee1-like protein kinase 2 (Homo sapiens) (UniProt P0C1S8); assay: Inhibition of wild-type human partial length WEE2 (M204 to K492 residues) expressed in bacterial expression system at 10 uM by Kinomescan method relative to control
[18] = target: Serine/threonine-protein kinase TAO1 (Homo sapiens) (UniProt Q7L7X3); assay: Inhibition of wild-type human partial length TAOK1 (M1 to A320 residues) expressed in mammalian expression system at 10 uM by Kinomescan method relative to control
[19] = target: Serine/threonine-protein kinase TBK1 (Homo sapiens) (UniProt Q9UHD2); assay: Inhibition of wild-type human full length TBK1 (M1 to L729 residues) expressed in mammalian expression system at 10 uM by Kinomescan method relative to control
[20] = target: Cyclin-dependent kinase 4 (Homo sapiens) (UniProt P11802); assay: Inhibition of wild-type human full length CDK4 (M1 to E303 residues) expressed in mammalian expression system at 10 uM by Kinomescan method relative to control
[21] = target: Mitogen-activated protein kinase 10 (Homo sapiens) (UniProt P53779); assay: Inhibition of wild-type human partial length JNK3 (V28 to Q422 residues) expressed in mammalian expression system at 10 uM by Kinomescan method relative to control
[22] = target: Mitogen-activated protein kinase kinase kinase 15 (Homo sapiens) (UniProt Q6ZN16); assay: Inhibition of wild-type human partial length MAP3K15 (T625 to L932 residues) expressed in mammalian expression system at 10 uM by Kinomescan method relative to control
[23] = target: Myosin light chain kinase 2, skeletal/cardiac muscle (Homo sapiens) (UniProt Q9H1R3); assay: Inhibition of wild-type human partial length MYLK2 (D258 to K570 residues) expressed in bacterial expression system at 10 uM by Kinomescan method relative to control
[24] = target: Insulin receptor-related protein (Homo sapiens) (UniProt P14616); assay: Inhibition of wild-type human partial length INSRR (R950 to E1278 residues) expressed in bacterial expression system at 10 uM by Kinomescan method relative to control
[25] = target: Serine/threonine-protein kinase PRP4 homolog (Homo sapiens) (UniProt Q13523); assay: Inhibition of wild-type human partial length PRP4 (D657 to I1007 residues) expressed in bacterial expression system at 10 uM by Kinomescan method relative to control
[26] = target: Rho-associated protein kinase 1 (Homo sapiens) (UniProt Q13464); assay: Inhibition of wild-type human partial length ROCK1 (M1 to R415 residues) expressed in mammalian expression system at 10 uM by Kinomescan method relative to control
[27] = target: Serine/threonine-protein kinase 3 (Homo sapiens) (UniProt Q13188); assay: Inhibition of wild-type human partial length MST2 (D17 to E318 residues) expressed in bacterial expression system at 10 uM by Kinomescan method relative to control
Chain of Serine/threonine-protein kinase 3 (Homo sapiens) (Q13188 whole entry, the tested form may be a part): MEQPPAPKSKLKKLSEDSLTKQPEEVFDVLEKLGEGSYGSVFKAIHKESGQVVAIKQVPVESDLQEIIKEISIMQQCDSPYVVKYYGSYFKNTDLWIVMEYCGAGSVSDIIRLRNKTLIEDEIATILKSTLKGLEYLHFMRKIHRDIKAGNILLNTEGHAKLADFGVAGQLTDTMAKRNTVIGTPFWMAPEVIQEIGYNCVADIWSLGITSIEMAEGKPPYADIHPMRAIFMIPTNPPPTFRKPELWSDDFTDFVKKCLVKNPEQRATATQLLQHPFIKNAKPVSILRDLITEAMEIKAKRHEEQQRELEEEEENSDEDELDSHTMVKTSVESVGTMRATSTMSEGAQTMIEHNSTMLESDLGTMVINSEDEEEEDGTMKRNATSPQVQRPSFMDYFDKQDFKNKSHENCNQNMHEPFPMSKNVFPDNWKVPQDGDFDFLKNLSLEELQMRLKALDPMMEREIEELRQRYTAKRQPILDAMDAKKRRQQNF

Chain of Ephrin type-A receptor 2 (Homo sapiens) (P29317 whole entry, the tested form may be a part): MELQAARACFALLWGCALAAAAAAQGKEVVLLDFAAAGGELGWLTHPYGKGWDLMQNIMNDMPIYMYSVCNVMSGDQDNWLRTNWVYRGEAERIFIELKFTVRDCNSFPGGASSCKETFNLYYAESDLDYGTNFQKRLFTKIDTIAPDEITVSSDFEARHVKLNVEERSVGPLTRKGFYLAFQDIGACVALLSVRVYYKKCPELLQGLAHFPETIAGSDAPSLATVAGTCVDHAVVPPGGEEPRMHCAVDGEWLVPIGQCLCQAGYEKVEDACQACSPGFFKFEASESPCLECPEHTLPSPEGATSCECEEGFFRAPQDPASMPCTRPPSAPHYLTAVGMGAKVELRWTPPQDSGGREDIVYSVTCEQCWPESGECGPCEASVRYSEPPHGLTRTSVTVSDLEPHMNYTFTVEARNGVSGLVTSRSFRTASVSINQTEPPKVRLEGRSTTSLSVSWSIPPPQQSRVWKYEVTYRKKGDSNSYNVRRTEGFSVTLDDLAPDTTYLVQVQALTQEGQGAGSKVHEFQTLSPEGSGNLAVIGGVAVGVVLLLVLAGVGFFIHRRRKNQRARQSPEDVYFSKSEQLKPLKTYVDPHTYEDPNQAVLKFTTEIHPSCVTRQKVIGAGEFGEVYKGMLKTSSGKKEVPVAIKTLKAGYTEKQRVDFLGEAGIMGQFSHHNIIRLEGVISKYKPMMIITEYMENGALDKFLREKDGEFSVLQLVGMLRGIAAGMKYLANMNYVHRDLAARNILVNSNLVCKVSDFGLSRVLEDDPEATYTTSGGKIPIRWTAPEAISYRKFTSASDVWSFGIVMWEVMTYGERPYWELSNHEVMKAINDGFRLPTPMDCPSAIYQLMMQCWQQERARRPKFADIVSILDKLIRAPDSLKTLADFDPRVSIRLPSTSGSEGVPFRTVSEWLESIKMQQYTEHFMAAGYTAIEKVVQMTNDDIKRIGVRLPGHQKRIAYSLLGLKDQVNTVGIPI
Chain of Calcium/calmodulin-dependent protein kinase kinase 2 (Homo sapiens) (Q96RR4 2-588 limits assumed): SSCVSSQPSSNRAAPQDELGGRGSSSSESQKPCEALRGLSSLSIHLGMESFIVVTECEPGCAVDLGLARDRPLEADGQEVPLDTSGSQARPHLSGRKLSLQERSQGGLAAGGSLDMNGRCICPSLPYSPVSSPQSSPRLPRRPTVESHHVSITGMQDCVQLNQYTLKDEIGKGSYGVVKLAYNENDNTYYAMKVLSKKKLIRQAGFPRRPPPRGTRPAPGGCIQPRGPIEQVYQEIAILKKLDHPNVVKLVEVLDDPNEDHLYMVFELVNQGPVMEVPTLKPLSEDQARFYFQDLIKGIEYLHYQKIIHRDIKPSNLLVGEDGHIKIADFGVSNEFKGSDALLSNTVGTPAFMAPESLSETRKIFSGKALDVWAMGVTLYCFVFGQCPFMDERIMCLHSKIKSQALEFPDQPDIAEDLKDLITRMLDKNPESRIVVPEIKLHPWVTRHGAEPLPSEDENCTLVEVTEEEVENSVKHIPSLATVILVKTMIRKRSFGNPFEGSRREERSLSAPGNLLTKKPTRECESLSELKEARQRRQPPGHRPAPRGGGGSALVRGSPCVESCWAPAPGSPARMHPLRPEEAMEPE
Chain of Wee1-like protein kinase 2 (Homo sapiens) (P0C1S8 whole entry, looked up, the tested form may be a part): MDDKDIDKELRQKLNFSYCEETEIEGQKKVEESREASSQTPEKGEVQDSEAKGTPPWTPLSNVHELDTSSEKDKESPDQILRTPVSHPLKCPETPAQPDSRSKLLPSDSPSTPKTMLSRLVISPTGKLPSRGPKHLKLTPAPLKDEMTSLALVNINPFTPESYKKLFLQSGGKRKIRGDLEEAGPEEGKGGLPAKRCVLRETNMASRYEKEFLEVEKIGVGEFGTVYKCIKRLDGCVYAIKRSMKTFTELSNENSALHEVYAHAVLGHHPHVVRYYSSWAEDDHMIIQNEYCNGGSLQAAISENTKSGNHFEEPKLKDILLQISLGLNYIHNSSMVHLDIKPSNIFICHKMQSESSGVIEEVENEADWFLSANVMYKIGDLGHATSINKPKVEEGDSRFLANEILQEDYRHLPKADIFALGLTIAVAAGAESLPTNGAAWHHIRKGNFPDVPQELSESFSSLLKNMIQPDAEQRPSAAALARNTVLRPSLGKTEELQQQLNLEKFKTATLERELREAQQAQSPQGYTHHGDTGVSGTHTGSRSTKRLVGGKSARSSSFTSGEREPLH
Chain of High affinity nerve growth factor receptor (Homo sapiens) (P04629 33-796 limits assumed): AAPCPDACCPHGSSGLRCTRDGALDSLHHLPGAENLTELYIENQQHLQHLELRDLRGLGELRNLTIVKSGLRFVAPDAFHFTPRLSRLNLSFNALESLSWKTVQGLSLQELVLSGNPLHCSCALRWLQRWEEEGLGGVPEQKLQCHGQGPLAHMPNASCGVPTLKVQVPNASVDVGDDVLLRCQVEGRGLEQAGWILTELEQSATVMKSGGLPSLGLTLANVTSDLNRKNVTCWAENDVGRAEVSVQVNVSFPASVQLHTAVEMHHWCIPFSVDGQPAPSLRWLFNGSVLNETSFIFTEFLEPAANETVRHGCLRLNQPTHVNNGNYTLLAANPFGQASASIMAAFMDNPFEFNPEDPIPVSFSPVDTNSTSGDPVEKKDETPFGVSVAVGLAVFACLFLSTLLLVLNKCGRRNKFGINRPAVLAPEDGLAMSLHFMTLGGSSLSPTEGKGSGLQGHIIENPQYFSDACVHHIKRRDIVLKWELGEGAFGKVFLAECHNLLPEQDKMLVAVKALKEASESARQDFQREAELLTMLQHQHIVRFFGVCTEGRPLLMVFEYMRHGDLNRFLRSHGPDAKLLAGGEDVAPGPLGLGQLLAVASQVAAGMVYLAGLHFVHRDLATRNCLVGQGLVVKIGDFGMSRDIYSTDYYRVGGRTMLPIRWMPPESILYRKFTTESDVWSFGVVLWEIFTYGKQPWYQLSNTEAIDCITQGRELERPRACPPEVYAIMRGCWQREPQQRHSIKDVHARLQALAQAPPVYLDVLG
Chain of Serine/threonine-protein kinase TAO1 (Homo sapiens) (Q7L7X3 whole entry, the tested form may be a part): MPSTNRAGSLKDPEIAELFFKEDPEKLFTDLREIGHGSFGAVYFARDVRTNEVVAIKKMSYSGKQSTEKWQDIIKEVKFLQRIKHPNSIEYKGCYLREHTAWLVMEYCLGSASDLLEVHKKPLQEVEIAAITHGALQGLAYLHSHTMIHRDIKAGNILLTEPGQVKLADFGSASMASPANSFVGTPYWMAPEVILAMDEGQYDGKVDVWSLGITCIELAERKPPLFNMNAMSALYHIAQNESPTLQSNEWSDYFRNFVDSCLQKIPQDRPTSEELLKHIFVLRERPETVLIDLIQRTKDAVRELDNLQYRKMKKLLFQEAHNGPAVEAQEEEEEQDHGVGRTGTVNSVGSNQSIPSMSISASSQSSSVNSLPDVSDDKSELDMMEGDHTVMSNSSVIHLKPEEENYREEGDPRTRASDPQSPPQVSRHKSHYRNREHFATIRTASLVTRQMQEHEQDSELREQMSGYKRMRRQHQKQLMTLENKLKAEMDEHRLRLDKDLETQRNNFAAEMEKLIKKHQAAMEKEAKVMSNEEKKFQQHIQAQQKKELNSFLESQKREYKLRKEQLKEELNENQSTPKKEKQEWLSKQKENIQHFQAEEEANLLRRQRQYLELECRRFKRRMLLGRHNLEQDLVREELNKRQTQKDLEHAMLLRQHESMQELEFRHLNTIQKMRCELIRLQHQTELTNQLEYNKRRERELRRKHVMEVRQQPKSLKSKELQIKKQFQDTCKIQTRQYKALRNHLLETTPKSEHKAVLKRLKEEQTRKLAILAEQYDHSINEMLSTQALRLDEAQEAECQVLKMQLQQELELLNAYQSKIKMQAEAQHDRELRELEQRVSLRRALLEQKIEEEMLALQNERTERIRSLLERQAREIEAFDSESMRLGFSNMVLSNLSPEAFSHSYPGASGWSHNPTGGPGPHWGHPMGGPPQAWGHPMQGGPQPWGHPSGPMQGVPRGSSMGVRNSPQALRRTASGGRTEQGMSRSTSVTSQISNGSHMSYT
Chain of Cyclin-dependent kinase 4 (Homo sapiens) (P11802 whole entry, the tested form may be a part): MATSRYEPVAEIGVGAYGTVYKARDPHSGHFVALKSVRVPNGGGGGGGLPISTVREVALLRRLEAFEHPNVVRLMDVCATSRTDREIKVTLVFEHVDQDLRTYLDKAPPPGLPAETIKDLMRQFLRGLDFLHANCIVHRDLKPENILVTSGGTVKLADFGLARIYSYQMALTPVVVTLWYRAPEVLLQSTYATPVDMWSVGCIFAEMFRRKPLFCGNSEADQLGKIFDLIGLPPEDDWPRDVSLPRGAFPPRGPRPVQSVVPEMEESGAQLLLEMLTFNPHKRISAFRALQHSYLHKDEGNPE

Compound: O=C(Nc1cccc([C@@H]2CN(c3ncnc4[nH]ccc34)CCN2CCO)c1)Nc1c(F)cccc1N1CCCC1
- inhibition [1]: 89%
- inhibition [2]: 85%
- inhibition [3]: 98%
- inhibition [4]: 100%
- inhibition [5]: 94%
- inhibition [6]: 56%
- inhibition [7]: 64%
- half-life [8]: 2.5 h
- inhibition [9]: 71%
- inhibition [10]: 83%
- inhibition [11]: 86%
- inhibition [12]: 91%
- inhibition [13]: 0.95%

Compound: O=C(Nc1cccc([C@H]2CCCN(c3ncnc4[nH]ccc34)C2)c1)Nc1ccccc1N1CCCC1
- inhibition [14]: 16%
- inhibition [15]: 29%
- inhibition [16]: 55%
- inhibition [17]: 100%
- inhibition [18]: 62%
- inhibition [19]: 57%
- inhibition [20]: 100%
- inhibition [21]: 64%
- inhibition [22]: 50%
- inhibition [23]: 58%
- inhibition [24]: 100%
- inhibition [25]: 17%
- inhibition [26]: 46%
- inhibition [27]: 54%
